In one assay the target is T1, CIRBP (Homo sapiens, UniProt Q14011).
T1 construct: full length (1-172), wild type; His6-protein A tag removed by TEV protease; E. coli BL21-DE3 Star; 15N-labelled
T1 sequence (Q14011 1-172): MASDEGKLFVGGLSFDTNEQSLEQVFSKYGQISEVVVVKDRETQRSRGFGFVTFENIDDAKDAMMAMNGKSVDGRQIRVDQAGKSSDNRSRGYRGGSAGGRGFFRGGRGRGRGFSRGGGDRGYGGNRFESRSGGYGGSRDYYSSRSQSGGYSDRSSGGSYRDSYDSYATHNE
Nature of the assay: 1H-15N HSQC NMR titration.
Conditions: not given
It counts as binding. The source says:
1H-15N HSQC NMR titration on CIRBP | ATP binding to CIRBP is in the fast exchange regime with an associated KD
Turning to `Nc1ncnc2c1ncn2[C@@H]1O[C@H](COP(=O)(O)OP(=O)(O)OP(=O)(O)O)[C@@H](O)[C@H]1O` [ATP], the dissociation constant (Kd) (usually the equilibrium constant for the complex coming apart) is 2.9 ± 1.4 mM.

The target of a further assay is T1, CIRBP. In words: 1H-15N HSQC NMR chemical shift perturbation. It counts as binding. The note with it: 17 μM 15N-CIRBP; 10 mM ligand; 50 mM sodium phosphate, 150 mM NaCl, pH 6.5, 298 K; RRM and RG/RGG region.
`Nc1ncnc2c1ncn2[C@@H]1O[C@H](COP(=O)(O)OP(=O)(O)O)[C@@H](O)[C@H]1O` [ADP]: the “1H-15N HSQC NMR chemical shift perturbation” value is “ADP and NAD^+ showed binding to CIRBP (Figure 2a,c)”.
As to `Nc1ncnc2c1ncn2[C@@H]1O[C@H](COP(=O)(O)O)[C@@H](O)[C@H]1O` [AMP], the “1H-15N HSQC NMR chemical shift perturbation” value is “the other tested nucleotides (ATP, AMP)”.
Still for that read-out and setting: as for `NC(=O)c1ccc[n+]([C@@H]2O[C@H](COP(=O)(O)OP(=O)(O)OC[C@H]3O[C@@H](n4cnc5c(N)ncnc54)[C@H](O)[C@@H]3O)[C@@H](O)[C@H]2O)c1` [NAD+], the entry is “ADP and NAD^+ showed binding to CIRBP (Figure 2a,c)”; as for `NC(=O)C1=CN([C@@H]2O[C@H](COP(=O)(O)OP(=O)(O)OC[C@H]3O[C@@H](n4cnc5c(N)ncnc54)[C@H](O)[C@@H]3O)[C@@H](O)[C@H]2O)C=CC1` [NADH], “dinucleotides (NADH, NADP^+ and NADPH) showed significant binding to CIRBP”.
`NC(=O)C1=CN([C@@H]2O[C@H](COP(=O)(O)OP(=O)(O)OC[C@H]3O[C@@H](n4cnc5c(N)ncnc54)[C@H](OP(=O)(O)O)[C@@H]3O)[C@@H](O)[C@H]2O)C=CC1` [NADPH]: the “1H-15N HSQC NMR chemical shift perturbation” value is “dinucleotides (NADH, NADP^+ and NADPH) showed significant binding to CIRBP”.
